According to patent US9315522B2, “Antibacterial compounds” (JANSSEN SCIENCES IRELAND UC, priority 2012, dated 2016):
≈ marks a conversion by molar mass, not a printed value. Where “and” joins values, the source holds several entries; their conditions need not be identical. Equal entries are not always repeated.

Columns and labels:
[1] = Cytotoxicity MTT assay (HELAM); format: cell-based, Human; details: human, HelaM cells, read-out: HELAM (222.125) CC50
Method: Cytotoxicity of the compounds was evaluated using the MTT assay. Human HelaM cells grown in 96-well plates were exposed to serial dilutions of the tested compounds (final volume of 0.2 ml) and incubated for 72 hours at 37° C. and 5% CO2. Inhibitors are typically varied over the range of 25 to 0.8 μM. The final DMSO concentration in the assay is 0.5%. MTT (3-(4,5-Dimethylthiazol-2-yl)-2,5-diphenyltetrazolium bromide, a tetrazole) was added and reduced to purple formazan only in living cells. Solubilization of the formazan crystals was achieved by adding 100 μl 2-propanol. Cell viability was determined by measuring the absorbance of the reduced formazan, giving a purple color, at 540 nm and 690 nm. The absorbance measured at 690 nm was automatically subtracted from the absorbance at 540 nm, to eliminate the effects of non-specific absorption. The percent cytotoxicity achieved by the compounds was calculated according to standard methods. Cytotoxicity is reported as CC50, the concentration that causes a 50% reduction in cell viability.
The results are depicted in the table(s) below (HELAM).

[2] = molecular target: T1, S. aureus ATCC 29213 FabI (Staphylococcus aureus, UniProt Q6GI75); assay: Staphylococcus aureus FabI enzyme inhibition assay; format: biochemical; details: read-out: FabI (300.235) IC50 (converted)
T1 sequence (Q6GI75 1-256): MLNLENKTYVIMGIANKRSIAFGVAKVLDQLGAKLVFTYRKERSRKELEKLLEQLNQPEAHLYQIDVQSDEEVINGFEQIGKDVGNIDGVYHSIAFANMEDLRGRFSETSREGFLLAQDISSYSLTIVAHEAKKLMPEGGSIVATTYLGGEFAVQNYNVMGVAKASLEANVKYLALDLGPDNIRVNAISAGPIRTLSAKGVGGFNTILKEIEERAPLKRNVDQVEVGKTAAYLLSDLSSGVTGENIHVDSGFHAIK
Method: Y.1 FabI Enzyme Inhibition: Staphylococcus aureus FabI Enzyme Inhibition Assay
FabI enzyme inhibition assays were carried out in half-area, 384-well microtitre plates. Compounds were evaluated in 40-μl assay mixtures containing 100 mM NaADA, pH 6.5 (ADA=N-[2-acetamido]-2iminodiacetic acid), 250 μM crotonoyl-CoA, 625 μM NADH and 50 μg/ml S. aureus ATCC 29213 FabI. Inhibitors were typically varied over the range of 50 to 0.39 μM. The reaction mixtures were incubated for 30 minutes at room temperature and the reaction was stopped by adding 200 mM Tris buffer (pH 9.0) to create a pH-shift. The consumption of NADH was monitored by measuring the change in absorbance at […]. By comparing sample readings to those of negative (absence of compound) and positive (absence of enzyme) controls, the percent inhibition of enzymatic activity of the compounds was determined A best-fit curve is fitted by a minimum of squares method. From this an IC50-value (expressed in μg/ml), resulting in 50% inhibition of enzymatic activity, was obtained.

S. aureus = assay: Antibacterial susceptibility testing, IC90 determination with 10% human serum (STA + 10% HS); format: cell-based, Staphylococcus aureus; details: Staphylococcus aureus, human serum at final concentration of 10%, read-out: STA + 10% HS (361.169) IC90
Method: (§1) The following bacteria were used: Staphylococcus aureus ATCC 29213, methicillin-resistant Staphylococcus aureus (MRSA) ATCC 700788 and Escherichia coli ATCC 35218. The bacteria used in this study were grown overnight in flasks containing 100 ml Mueller-Hinton broth (Difco cat. nr. 0757-17) in sterile de-ionized water, with shaking, at 37° C. Stocks were store at −70° C. until use.
(§2) Bacteria were incubated on a tryptic soy agar plate containing 5% sheep blood (Becton Dickinson cat. nr. 254053) for 18-24 hours at 35° C. in aerobic conditions (first passage). For the second passage, fresh Mueller-Hinton broth is inoculated with 5-10 colonies and grown overnight at 35° C. until turbidity (reaching log-phase) in aerobic conditions is reached. The bacterial suspension is then adjusted to 0.5 McFarland density and further diluted 1:100 in Mueller Hinton broth medium. This is used as inoculum.
(§3) MIC assays were performed by the broth microdilution method in a 96-well format (flat-bottom microtitre plates) with a final volume of 0.1 ml Mueller Hinton broth containing two-fold serial dilutions of compounds and inoculated with 5×10^5 CFU/ml of bacteria (standard inoculum size according to CLSI guidelines). Inhibitors are typically varied over the range of 63 to 0.49 μM. The final DMSO concentration in the assay was 1.25% (maximum tolerable DMSO concentration=6%). In the assays where the effect of human serum on the activity of the compounds against S. aureus was tested, human serum was added at a final concentration of 10%. The plates were incubated at 35° C. for 16-20 hours. At the end of incubation the bacterial growth was quantified fluorometrically. For this, resazurin was added to all wells and the plates were re-incubated. The incubation time is dependent on the type of bacteria. A change in color from blue to pink indicated the growth of bacteria. The fluorescence was read in computer-controlled fluorometer (Fluoroskan Ascent FL, Labsystems) at an excitation wavelength 540 nm and an emission wavelength of 590 nm. The % growth inhibition achieved by the compounds was calculated according to standard methods. The IC90 (expressed in μg/ml) was defined as the 90% inhibitory concentration for bacterial growth. A panel of reference compounds were simultaneously tested for QC approval.
The results are depicted in the table(s) below (STA+10% HS).

[3] = system: Staphylococcus aureus ATCC 29213; assay: Antibacterial susceptibility testing, IC90 determination (STA); format: cell-based; details: Staphylococcus aureus, ATCC29213, Staphylococcus aureus ATCC 29213, broth microdilution, resazurin; read-out: STA (361.159) IC90
Method: as §1, §2
The result(s) are depicted the table below (for STA ATCC 29213).
as §3

Structure (SMILES)	CC50 at 72 h [1]	IC50 [2]	IC90 (S. aureus)	IC90 [3]	melting point
O=C1COCc2cc(/C=C/C(=O)N3C[C@H]4CC(c5ccccc5)=C[C@H]4C3)cnc2N1 (single isomer, unassigned) [compound 53]	> 10.1 µg/mL	1470 nM	0.7 µg/mL	0.37 µg/mL (≈ 0.922 µM)	272.58 °C
O=C(Nc1ccc(/C=C/C(=O)N2CC3C=C(c4ccccc4)CC3C2)cn1)c1cccnc1 (stereo not drawn) [Cpd. No. 3]	1.23 µg/mL (≈ 2.82 µM)	1810 nM	0.79 µg/mL	0.21 µg/mL (≈ 0.481 µM)	238 °C
Cc1cncc(C(=O)Nc2ccc(/C=C/C(=O)N3CC4C=C(c5ccccc5)CC4C3)cn2)c1 (stereo not drawn) [compound 1]	> 4.5 µg/mL	1820 nM	0.67 µg/mL	0.17 µg/mL (≈ 0.377 µM)	214 °C
O=C(Nc1ccc(/C=C/C(=O)N2CC3C=C(c4ccccc4)CC3C2)cn1)c1ccoc1 (stereo not drawn) [compound 2]	7.57 µg/mL (≈ 17.8 µM)	7590 nM	1.66 µg/mL	0.21 µg/mL (≈ 0.494 µM)	202 °C
O=C(Nc1ccc(/C=C/C(=O)N2CC3C=C(c4ccsc4)CC3C2)cn1)c1cccnc1 (stereo not drawn) [compound 4]	0.97 µg/mL (≈ 2.19 µM)	–	0.28 µg/mL	< 0.21 µg/mL	236.37 °C and 236 °C
Cc1cncc(C(=O)Nc2ccc(/C=C/C(=O)N3CC4C=C(c5ccsc5)CC4C3)cn2)c1 (stereo not drawn) [compound 5]	10.1 µg/mL (≈ 22.1 µM)	1730 nM	0.36 µg/mL	< 0.22 µg/mL	208.43 °C
Cc1cncc(C(=O)Nc2ccc(/C=C/C(=O)N3CC4C=C(c5nccs5)CC4C3)cn2)c1 (stereo not drawn) [compound 6]	> 11.5 µg/mL	–	< 0.22 µg/mL	< 0.22 µg/mL	230.99 °C and 231 °C
Cc1cncc(C(=O)Nc2ccc(/C=C/C(=O)N3CC4C=C(c5ccncc5)CC4C3)cn2)c1 (stereo not drawn) [compound 8]	> 11.3 µg/mL	1240 nM	0.398 µg/mL	0.316 µg/mL (≈ 0.7 µM)	202.82 °C
CC(=O)Nc1ccc(/C=C/C(=O)N2CC3C=C(c4ccccc4)CC3C2)cn1 (stereo not drawn) [compound 10]	> 9.38 µg/mL	1070 nM	0.5 µg/mL	0.34 µg/mL (≈ 0.91 µM)	251 °C and 251.61 °C
Cc1occc1C(=O)Nc1ccc(/C=C/C(=O)N2CC3C=C(c4ccccc4)CC3C2)cn1 (stereo not drawn) [compound 11]	5.16 µg/mL (≈ 11.7 µM)	3230 nM	3.33 µg/mL	0.47 µg/mL (≈ 1.07 µM)	140 °C
O=C(Nc1ccc(/C=C/C(=O)N2CC3C=C(c4ccccc4)CC3C2)cn1)c1ccncc1 (stereo not drawn) [compound 12]	> 11 µg/mL	2040 nM	1.58 µg/mL	0.5 µg/mL (≈ 1.15 µM)	184 °C
O=C(Nc1ccc(/C=C/C(=O)N2CC3C=C(c4ccccc4)CC3C2)cn1)c1ccccc1 (stereo not drawn) [compound 13]	> 10.9 µg/mL	3560 nM	5.36 µg/mL	0.76 µg/mL (≈ 1.75 µM)	120 °C
O=C(Cc1ccncc1)Nc1ccc(/C=C/C(=O)N2CC3C=C(c4ccccc4)CC3C2)cn1 (stereo not drawn) [compound 14]	> 11.3 µg/mL	1730 nM	2.65 µg/mL	0.86 µg/mL (≈ 1.91 µM)	239.7 °C
Nc1ccc(/C=C/C(=O)N2CC3C=C(c4ccccc4)CC3C2)cn1 (stereo not drawn) [compound 15]	> 8.32 µg/mL	2350 nM	2.43 µg/mL	1.23 µg/mL (≈ 3.71 µM)	236 °C
Cc1cncc(C(=O)Nc2ccc(/C=C/C(=O)N3CC4C=C(c5ccnn5C)CC4C3)cn2)c1 (stereo not drawn) [compound 16]	> 11.4 µg/mL	1320 nM	1.63 µg/mL	1.25 µg/mL (≈ 2.75 µM)	173.34 °C
O=C(Cc1ccncc1)Nc1ccc(/C=C/C(=O)N2CC3C=C(c4ccncc4)CC3C2)cn1 (stereo not drawn) [compound 17]	> 4.51 µg/mL	1440 nM	1.4 µg/mL	1.33 µg/mL (≈ 2.95 µM)	> 250 °C
COC(=O)CCC(=O)Nc1ccc(/C=C/C(=O)N2CC3C=C(c4ccccc4)CC3C2)cn1 (stereo not drawn) [compound 18]	> 11.2 µg/mL	2560 nM	3.05 µg/mL	1.6 µg/mL (≈ 3.59 µM)	216 °C and 216.42 °C
Cc1cc(C(=O)Nc2ccc(/C=C/C(=O)N3CC4C=C(c5ccccc5)CC4C3)cn2)c(C)o1 (stereo not drawn) [compound 19]	10.8 µg/mL (≈ 23.7 µM)	4670 nM	16.1 µg/mL	1.61 µg/mL (≈ 3.55 µM)	184.41 °C
COc1cncc(C(=O)Nc2ccc(/C=C/C(=O)N3CC4C=C(c5ccncc5)CC4C3)cn2)c1 (stereo not drawn) [compound 30]	> 11.7 µg/mL	1390 nM	< 0.23 µg/mL	< 0.23 µg/mL	142 °C
O=C1Nc2ncc(/C=C/C(=O)N3CC4C=C(c5ccccc5)CC4C3)cc2C(=O)N2CCNCC12 (stereo not drawn) [compound 81]	–	–	0.43 µg/mL	0.45 µg/mL (≈ 0.958 µM)	230 to 232 °C
